Measured values reported in ChEMBL document CHEMBL3758177, “Synthesis and biological evaluation of novel phosphoramidate derivatives of coumarin as chitin synthase inhibitors and antifungal agents” (Eur J Med Chem, 2016).

Test system: Candida albicans
Experiment: Antifungal activity against Candida albicans CMCC 76615 after seven days by disc diffusion method
Format: functional

Compound: O=c1oc2ccccc2c(Cl)c1/C=N/c1nncs1
- diameter of the inhibition zone (DIZ): 15 mm
